{"source": "a melting point compilation (Tetko et al.; mined from patent text by program, amines drawn as free bases though some values may be those of a salt)"}
{"units": {"melting point": "°C"}}
{"smiles": "CCC(C)(C)c1ccc(OCCCNC(=O)c2cc([N+](=O)[O-])c3ccccc3c2O)c(C(C)(C)CC)c1", "melting point": "209 to 210"}
{"smiles": "COC(=O)CCCC#Cc1cc(Cl)ccc1NS(=O)(=O)c1sc(NC(C)=O)nc1C", "melting point": "147 to 149"}
{"smiles": "CCCN(CCC)Cc1cnc(-c2ncn3c2CN(C)C(=O)c2c-3ccc(F)c2Cl)o1", "melting point": "110 to 112"}
{"smiles": "Cc1ccc2c(c1)NC(=O)c1cscc1O2", "melting point": "209 to 213"}
{"smiles": "CN1C(=O)CC[C@]2(C)c3ccc(-c4cc(C(F)(F)F)nc5c(C(F)(F)F)cccc45)cc3CC[C@@H]12", "melting point": "100 to 106"}
{"smiles": "CCOC(=O)c1ccc(OCCC2CN(c3nnc(Br)s3)CCO2)cc1", "note": "(configuration not stated)", "melting point": 131}
{"smiles": "C#Cc1ccc(Nc2c(C(=O)c3nccn3C)ccc(F)c2F)c(F)c1", "melting point": 166}
{"smiles": "CC1(CF)C=C(Br)c2cc([N+](=O)[O-])ccc2O1", "note": "(configuration not stated)", "melting point": "116 to 117"}
{"smiles": "Cc1[nH]c(=S)[nH]c1C(=O)c1ccccc1", "melting point": "268 to 269"}
{"smiles": "COCc1ccc(C(=O)NCC#N)cc1", "melting point": "107 to 108"}
{"smiles": "COc1ccc(OC)c(C(=O)Nc2ccc(N3CCCC3)cc2C(C)=O)c1", "melting point": "137 to 140"}
{"smiles": "C#Cc1ccc2c(c1)C(c1ccccn1)=NCc1c(C(=O)NC)ncn1-2", "melting point": "215 to 216"}
{"smiles": "O=[N+]([O-])c1ccc(-c2nc(-c3cccs3)no2)cc1", "melting point": "169 to 171"}
{"smiles": "CS(=O)(=O)C(=C1CN(C(c2ccccc2)c2ccccc2)C1)c1cccc(I)c1", "melting point": 198}
{"smiles": "O=C(CI)c1cc(OCc2ccccc2)c(OCc2ccccc2)c(OCc2ccccc2)c1", "melting point": "110 to 112"}
{"smiles": "CC(C)(C)C1CC=C(c2cc(C(F)(F)F)cc3[nH]c(N4CCN(c5ncccc5C(F)(F)F)CC4)nc23)CC1", "note": "(configuration not stated)", "melting point": "96 to 97.7"}
{"smiles": "COc1cc(N)c(Cl)cc1C(=O)NCC1CCN(CCCCCC(=O)c2ccc(Cl)cc2Cl)CC1", "melting point": "150 to 155"}
{"smiles": "C=C(C)C=NNC1=NS(=O)(=O)c2ccccc21", "melting point": 224}
{"smiles": "CS(=O)(=O)c1c(Cl)c2cccnc2n(Cc2ccccc2)c1=O", "melting point": 191}
{"smiles": "O=C(O)CN1C(=O)C(=CC=Cc2ccccc2-c2ccccc2)SC1=S", "melting point": "246 to 249"}
{"smiles": "C=CCSc1nc(N)nc2c1ncn2C1C=CC(CO)C1", "note": "(configuration not stated)", "melting point": "108 to 110"}
{"smiles": "COc1ccc(-c2nc(S(=O)(=O)C(C)C)[nH]c2-c2ccncc2)cc1", "melting point": "262 to 266"}
{"smiles": "CC(C)(C)C(=O)C(Oc1ccc(Cl)cc1)c1ccccc1", "note": "(configuration not stated)", "melting point": 103}
{"smiles": "CC(C)(C)c1cc(-n2nc3ccc(S(=O)(=O)c4ccccc4)cc3n2)c(O)c(C(C)(C)C)c1", "melting point": "170 to 172"}
{"smiles": "CC(C)(C)NC(=O)[C@H](Cc1ccc([N+](=O)[O-])cc1)NC(=O)OC(C)(C)C", "melting point": "158 to 159"}
{"smiles": "Brc1ccc(-c2ccc(C=CC3COC4(CCCCC4)OO3)cc2)cc1", "note": "(configuration not stated)", "melting point": "118 to 120"}
{"smiles": "Cc1cc(S(=O)(=O)N2c3ccc(Br)cc3-c3ccccc3C2C)ccc1O", "note": "(configuration not stated)", "melting point": "193 to 195"}
{"smiles": "O=C(NCCSCc1ccccc1)c1cnccc1C(F)(F)F", "melting point": "86 to 88"}
{"smiles": "Cc1c(C(=O)OCc2ccc(Cl)cc2)oc2cccc(O)c12", "melting point": "202 to 204"}
{"smiles": "CCCCc1c(/C=C/C(=O)NCCCCCCc2cncnc2)cc(OC)c2ccccc12", "melting point": "128 to 129"}
{"smiles": "CSc1sc(-c2ccn(C)n2)c2c1-c1oncc1C(C)(C)C2", "melting point": "128 to 130"}
{"smiles": "Cc1cn(-c2cc(C(=O)O)cc(C(F)(F)F)c2)cn1", "melting point": "> 300"}
{"smiles": "CN(C)c1ccccc1SCc1noc(-c2ccccc2)n1", "melting point": 100}
{"smiles": "Cc1nc2cc3c(cc2c(=O)[nH]1)C(N(C)c1ccc(C(=O)NC(CCc2nnn[nH]2)C(=O)O)nc1)CC3", "note": "(racemic)", "melting point": "248 to 250"}
{"smiles": "CC1C(=NO)CC2(O)C3Cc4ccc(O)c5c4C2(CCN3C)C1O5", "note": "(configuration not stated)", "melting point": "115 to 116"}
{"smiles": "CS(=O)(=O)NC1CCN(Cc2ccccc2)CC1", "melting point": "135 to 136"}
{"smiles": "CCOP(=O)(/C=C/c1cn(-c2ccccc2)nc1OCc1ccc(OCc2nc(-c3ccc(C(=O)OC)cc3)oc2C)c(OC)c1)OCC", "melting point": "129 to 130"}
{"smiles": "O=C(O)C1(c2cccs2)CC1", "melting point": "116 to 118"}
{"smiles": "COc1cccc2c1CCc1ccn(CCNC(C)=O)c1-2", "melting point": 133}
{"smiles": "Cc1ccc(S(=O)(=O)O[C@H]2CCN(S(=O)(=O)c3ccc(C)cc3)C2)cc1", "melting point": 110}
{"smiles": "CC(=O)NC[C@H]1CN(c2ccc(N3C[C@@H]4C[C@H]3CO4)c(F)c2)C(=O)O1", "melting point": "60 to 65"}
{"smiles": "CCCCCCCCCCC(C)OS(=O)(=O)NC(=O)Nc1c(C(C)C)cccc1C(C)C", "note": "(configuration not stated)", "melting point": "110 to 112"}
{"smiles": "CCOC(=O)C(C)(C)C(=O)C(Oc1ccc(Cl)cc1)n1cncn1", "note": "(configuration not stated)", "melting point": "88 to 89"}
{"smiles": "O=C(Nc1ccc(S(=O)(=O)c2ccncc2)cc1)C(O)(C(F)(F)F)C(F)(F)F", "melting point": "235 to 237"}
{"smiles": "CC(C)(C)OC(=O)NS(=O)(=O)N1CCC(F)(F)CC1", "melting point": "82 to 83"}
{"smiles": "C=CC1OC(=O)N2c3ccc(O)cc3CCC12", "note": "(configuration not stated)", "melting point": 250}
{"smiles": "COC(=O)COc1c(-c2ccccc2)c(=O)[nH]c2cc(Cl)ccc12", "melting point": "188 to 191"}
{"smiles": "COc1cccc(NCC(=O)Nc2ccc(S(N)(=O)=O)cc2Cl)c1", "melting point": "148 to 152"}
{"smiles": "NC(=O)C1(c2ccccc2)CCN(Cc2ccccc2)CC1", "melting point": "117 to 118"}
{"smiles": "CN1CCc2c([nH]c3ccc(NS(=O)(=O)c4c(Cl)nc5sccn45)cc23)C1", "melting point": "232 to 233"}
{"smiles": "COc1ccc(C=C(C#N)c2ccncc2)cc1OC1CCCC1", "melting point": "125 to 127"}
{"smiles": "CCOC(=O)c1cccc(OCCCC2CCN(c3ccc(Cl)nn3)CC2)c1", "melting point": 105}
{"smiles": "Cn1ccc2c(ccc3[nH]cc(CCNCc4ccccc4)c32)c1=O", "melting point": "186 to 192"}
{"smiles": "O=C(Nc1cc(Cl)cc(Cl)c1)C1=C(O)N2CCCN=C2S1", "melting point": 270}
{"smiles": "CCOC(=O)c1c(C)nsc1NC(=O)NC(C)C", "melting point": "175 to 176"}
{"smiles": "Nc1cc(C(=O)c2ccc(C(=O)c3ccc(F)c(N)c3)cc2)ccc1F", "melting point": "220 to 221"}
{"smiles": "CCOC(=O)CNC(=O)c1cccc(Cl)c1", "melting point": "70 to 72"}
{"smiles": "NC(=O)c1cccc(NC(=O)C(CS)Cc2ccccc2)c1", "note": "(configuration not stated)", "melting point": "159 to 164"}
{"smiles": "COc1cc(OC)c(-c2cccn2C(=O)OC(C)(C)C)cc1/C=C/C(=O)c1ccc(C(=O)O)cc1", "melting point": "205 to 207"}
{"smiles": "CC1(C)OC(C=CC=Cc2ccc(Cl)cc2)=CC1=O", "melting point": "95 to 96"}
{"smiles": "CCOC(=O)C1=CC(=O)N=N1", "melting point": "235 to 238"}
{"smiles": "Cc1ccc(N(C(=O)CCl)c2c(Cl)cccc2Cl)cc1", "melting point": 130}
{"smiles": "O=C(O)c1cn2c3c(cc(Cl)cc3c1=O)CCC2", "melting point": "282 to 286"}
{"smiles": "NCCNc1cnnc(N)n1", "melting point": "186 to 191"}
{"smiles": "CCOCCCOc1ccc(-c2ccc3c(c2)C=C(C(=O)OC)CCN3C=O)cc1", "melting point": "112 to 113"}
{"smiles": "COc1ccccc1-c1ccc(S(=O)(=O)Nc2onc(C)c2Br)s1", "melting point": "114 to 117"}
{"smiles": "COC(=O)c1ccc2[nH]cc(C(=O)c3ccccc3)c2c1", "melting point": "271 to 273"}
{"smiles": "CCCCCc1cc2c(nc(O)n2CC2CCN(S(C)(=O)=O)CC2)c(N)n1", "melting point": "228 to 231"}
{"smiles": "CCCCC=C(c1ccccc1N1CCCCC1)C(C(N)=O)c1ccc(C(=O)OCC)cc1", "note": "(configuration not stated)", "melting point": "83 to 85"}
{"smiles": "CCCCc1nc(C(=O)O)c(C(=O)O)[nH]1", "melting point": "261 to 263"}
{"smiles": "COc1ccc(C(=O)[C@H]2CC=CC[C@H]2C(=O)O)cc1OC1CCCC1", "note": "(relative stereo)", "melting point": "114 to 115"}
{"smiles": "Cc1cc(-n2ccc(OCCCO)cc2=O)sc1C(=O)NCc1cccc(F)c1", "melting point": "135 to 137"}
